Assay results from patent US7846959B2, “Raf modulators and methods of use” (Exelixis, Inc., priority 2004, dated 2010).

Columns and labels:
c-Raf = c-Raf (Homo sapiens, UniProt P04049); assay: Luciferase-coupled chemiluminescence kinase assay (ATP consumption), c-Raf; assay type: biochemical; conditions: read-out: cRaf-1 (inhibition indicated as IC50)
Method in brief: (§1)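 Compound is first mixed with […] Raf enzyme in 20 mM Tris pH 7.5 containing 10 mM MgCl2, 0.03% TX-100 and 1 mM DTT (30 min, room temperature). ATP then starts a 3 h reaction, and unconsumed ATP is detected by chemiluminescence.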

B-Raf = B-Raf (Homo sapiens, UniProt P15056); assay: Luciferase-coupled chemiluminescence kinase assay (ATP consumption), B-Raf; assay type: biochemical; conditions: read-out: bRaf (inhibition indicated as IC50)
Method in brief: as §1

Chain of B-Raf (P15056 whole entry): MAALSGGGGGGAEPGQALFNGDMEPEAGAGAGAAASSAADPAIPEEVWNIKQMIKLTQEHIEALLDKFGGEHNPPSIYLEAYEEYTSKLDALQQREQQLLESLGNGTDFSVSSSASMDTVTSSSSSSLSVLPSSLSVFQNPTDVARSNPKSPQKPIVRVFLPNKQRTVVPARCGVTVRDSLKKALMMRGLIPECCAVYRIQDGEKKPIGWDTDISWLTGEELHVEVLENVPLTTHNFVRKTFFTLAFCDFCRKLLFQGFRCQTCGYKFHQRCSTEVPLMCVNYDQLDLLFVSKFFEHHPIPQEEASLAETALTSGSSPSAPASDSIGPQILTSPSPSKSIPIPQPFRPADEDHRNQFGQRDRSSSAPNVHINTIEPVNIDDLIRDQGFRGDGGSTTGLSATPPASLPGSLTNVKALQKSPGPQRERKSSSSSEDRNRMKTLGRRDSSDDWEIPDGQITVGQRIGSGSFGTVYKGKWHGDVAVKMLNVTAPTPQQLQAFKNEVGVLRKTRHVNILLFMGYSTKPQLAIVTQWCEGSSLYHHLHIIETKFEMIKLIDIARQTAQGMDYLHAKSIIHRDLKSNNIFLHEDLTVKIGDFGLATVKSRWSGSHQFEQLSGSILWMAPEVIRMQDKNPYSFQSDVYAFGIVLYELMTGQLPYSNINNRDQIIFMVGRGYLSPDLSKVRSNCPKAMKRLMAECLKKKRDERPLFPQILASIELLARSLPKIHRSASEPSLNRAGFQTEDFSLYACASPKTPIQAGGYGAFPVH
Chain of c-Raf (P04049 whole entry): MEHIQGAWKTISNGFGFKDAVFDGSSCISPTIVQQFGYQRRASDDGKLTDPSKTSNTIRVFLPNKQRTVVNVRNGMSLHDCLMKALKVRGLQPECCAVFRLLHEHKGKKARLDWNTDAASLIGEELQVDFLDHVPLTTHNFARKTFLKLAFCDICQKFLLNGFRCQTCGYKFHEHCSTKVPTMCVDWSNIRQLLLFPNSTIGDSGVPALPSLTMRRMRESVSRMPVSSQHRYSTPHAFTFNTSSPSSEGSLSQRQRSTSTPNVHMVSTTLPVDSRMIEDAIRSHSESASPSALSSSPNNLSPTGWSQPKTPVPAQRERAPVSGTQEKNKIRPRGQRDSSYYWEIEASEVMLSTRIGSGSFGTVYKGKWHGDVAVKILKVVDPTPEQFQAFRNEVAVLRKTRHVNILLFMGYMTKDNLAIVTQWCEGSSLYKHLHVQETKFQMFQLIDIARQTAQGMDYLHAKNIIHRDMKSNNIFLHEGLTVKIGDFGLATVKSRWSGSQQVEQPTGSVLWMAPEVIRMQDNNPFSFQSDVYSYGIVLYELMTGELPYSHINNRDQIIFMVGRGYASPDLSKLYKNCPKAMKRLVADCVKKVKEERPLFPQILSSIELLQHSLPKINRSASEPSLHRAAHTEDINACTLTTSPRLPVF

SMILES | IC50 (c-Raf) [nM] | IC50 (B-Raf) [nM]
COC(=O)Nc1nc2cc(C3(O)c4ccccc4C(=O)N3c3cccc(N(C)C4CCCCC4)c3)ccc2[nH]1 (stereo not shown) [Entry 311, methyl [5-(2-{3-[cyclohexyl(methyl)amino]phenyl}-1-hydroxy-3-oxo-2,3-dihydro-1H-isoindol-1-yl)-1H-benzimidazol-2-yl]carbamate] | < 100 | < 100
O=C(Nc1nc2ccc(C3(O)c4ccccc4C(=O)N3c3cccc(Cl)c3F)cc2[nH]1)OCC1CC2CCC(C1)N2 (stereo not shown) [Entry 312, 8-azabicyclo[3.2.1]oct-3-ylmethyl {6-[2-(3-chloro-2-fluorophenyl)-1-hydroxy-3-oxo-2,3-dihydro-1H-isoindol-1-yl]-1H-benzimidazol-2-yl}carbamate] | < 100 | < 100
COC(=O)Nc1nc2ccc(C3CCC(=O)N3c3cccc(Br)c3)cc2[nH]1 (stereo not shown) [Entry 313, methyl {6-[1-(3-bromophenyl)-5-oxopyrrolidin-2-yl]-1H-benzimidazol-2-yl}carbamate] | 1000 to 10000 | 1000 to 10000
CN1CCC(COC(=O)Nc2nc3cc(C4(O)c5ccccc5C(=O)N4Cc4ccccc4)ccc3[nH]2)CC1 (stereo not shown) [Entry 314, (1-methylpiperidin-4-yl)methyl {5-[1-hydroxy-3-oxo-2-(phenylmethyl)-2,3-dihydro-1H-isoindol-1-yl]-1H-benzimidazol-2-yl}carbamate] | < 100 | < 100
CC(C)(C)OC(=O)N1CCC(COC(=O)Nc2nc3cc(C4(O)c5ccccc5C(=O)N4Cc4ccccc4)ccc3[nH]2)CC1 (stereo not shown) [Entry 315, 1,1-dimethylethyl 4-({[({5-[1-hydroxy-3-oxo-2-(phenylmethyl)-2,3-dihydro-1H-isoindol-1-yl]-1H-benzimidazol-2-yl}amino)carbonyl]oxy}methyl)piperidine-1-carboxylate] | 100 to 1000 | 100 to 1000
CN1CCC(COC(=O)Nc2nc3cc(C4(O)c5ccccc5C(=O)N4c4cccc(Cl)c4F)ccc3[nH]2)CC1 (stereo not shown) [Entry 316, (1-methylpiperidin-4-yl)methyl {5-[2-(3-chloro-2-fluorophenyl)-1-hydroxy-3-oxo-2,3-dihydro-1H-isoindol-1-yl]-1H-benzimidazol-2-yl}carbamate] | < 100 | < 100
CN1CCC(CCOC(=O)Nc2nc3cc(C4(O)c5ccccc5C(=O)N4c4cccc(Cl)c4F)ccc3[nH]2)CC1 (stereo not shown) [Entry 317, 2-(1-methylpiperidin-4-yl)ethyl {5-[2-(3-chloro-2-fluorophenyl)-1-hydroxy-3-oxo-2,3-dihydro-1H-isoindol-1-yl]-1H-benzimidazol-2-yl}carbamate] | < 100 | < 100
COC(=O)C(=O)Nc1nc2ccc(C3(O)c4ccccc4C(=O)N3c3cccc(Cl)c3F)cc2[nH]1 (stereo not shown) [Entry 318, methyl ({6-[2-(3-chloro-2-fluorophenyl)-1-hydroxy-3-oxo-2,3-dihydro-1H-isoindol-1-yl]-1H-benzimidazol-2-yl}amino)(oxo)acetate] | 1000 to 10000 | 1000 to 10000

More lines, now with the values ahead:

IC50 (c-Raf) [nM] | IC50 (B-Raf) [nM] | SMILES
< 100 | < 100 | O=C(Nc1nc2ccc(C3(O)c4ccccc4C(=O)N3c3cccc(Cl)c3F)cc2[nH]1)OCCN1CCOCC1 (stereo not shown) [Entry 308, 2-morpholin-4-ylethyl {6-[2-(3-chloro-2-fluorophenyl)-1-hydroxy-3-oxo-2,3-dihydro-1H-isoindol-1-yl]-1H-benzimidazol-2-yl}carbamate]
< 100 | < 100 | CN1CCCC(COC(=O)Nc2nc3ccc(C4(O)c5ccccc5C(=O)N4c4cccc(Cl)c4F)cc3[nH]2)C1 (stereo not shown) [Entry 309, (1-methylpiperidin-3-yl)methyl {6-{2-(3-chloro-2-fluorophenyl)-1-hydroxy-3-oxo-2,3-dihydro-1H-isoindol-1-yl]-1H-benzimidazol-2-yl}carbamate]
< 100 | < 100 | COC(=O)Nc1nc2cc(C3(O)c4ccccc4C(=O)N3c3cc(Cl)ccc3OC)ccc2[nH]1 (stereo not shown) [Entry 310, methyl (5-{2-[5-chloro-2-(methyloxy)phenyl]-1-hydroxy-3-oxo-2,3-dihydro-1H-isoindol-1-yl}-1H-benzimidazol-2-yl)carbamate]
